Laboratory results published in patent US20240150377A1, “MODULATORS OF CYSTIC FIBROSIS TRANSMEMBRANE CONDUCTANCE REGULATOR” (VERTEX PHARMACEUTICALS INCORPORATED, priority 2020, published 2024).
Like-named read-outs stand apart in the source and are kept apart here.

Target: CFTR (Homo sapiens, UniProt P13569)
Assay: Membrane potential dye, Enteroid Assay A
Type: cell-based
Conditions: for Ent. A Max Activity: chloride transport as % of triple combination control (Enteroid Assay A); for EC50: human enteroid cells, 18-24 hours, acute 10 μM forskolin and 300 nM ivacaftor, read-out: Ent. A EC50
Method in brief: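 % Activity: chloride transport relative to a 3 μM/3 μM corrector pair plus 300 nM acute potentiator control. Primary human enteroid cells, 18-24 h compound exposure at 37 °C; membrane potential dye (methyl oxonol) fluorescence over 15 min after forskolin (10 μM)/IBMX (100 μM)/Compound III (300 nM) stimulation in chloride-free buffer.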

Sequence of CFTR (P13569 with tags, fused parts or gaps DEL508-508): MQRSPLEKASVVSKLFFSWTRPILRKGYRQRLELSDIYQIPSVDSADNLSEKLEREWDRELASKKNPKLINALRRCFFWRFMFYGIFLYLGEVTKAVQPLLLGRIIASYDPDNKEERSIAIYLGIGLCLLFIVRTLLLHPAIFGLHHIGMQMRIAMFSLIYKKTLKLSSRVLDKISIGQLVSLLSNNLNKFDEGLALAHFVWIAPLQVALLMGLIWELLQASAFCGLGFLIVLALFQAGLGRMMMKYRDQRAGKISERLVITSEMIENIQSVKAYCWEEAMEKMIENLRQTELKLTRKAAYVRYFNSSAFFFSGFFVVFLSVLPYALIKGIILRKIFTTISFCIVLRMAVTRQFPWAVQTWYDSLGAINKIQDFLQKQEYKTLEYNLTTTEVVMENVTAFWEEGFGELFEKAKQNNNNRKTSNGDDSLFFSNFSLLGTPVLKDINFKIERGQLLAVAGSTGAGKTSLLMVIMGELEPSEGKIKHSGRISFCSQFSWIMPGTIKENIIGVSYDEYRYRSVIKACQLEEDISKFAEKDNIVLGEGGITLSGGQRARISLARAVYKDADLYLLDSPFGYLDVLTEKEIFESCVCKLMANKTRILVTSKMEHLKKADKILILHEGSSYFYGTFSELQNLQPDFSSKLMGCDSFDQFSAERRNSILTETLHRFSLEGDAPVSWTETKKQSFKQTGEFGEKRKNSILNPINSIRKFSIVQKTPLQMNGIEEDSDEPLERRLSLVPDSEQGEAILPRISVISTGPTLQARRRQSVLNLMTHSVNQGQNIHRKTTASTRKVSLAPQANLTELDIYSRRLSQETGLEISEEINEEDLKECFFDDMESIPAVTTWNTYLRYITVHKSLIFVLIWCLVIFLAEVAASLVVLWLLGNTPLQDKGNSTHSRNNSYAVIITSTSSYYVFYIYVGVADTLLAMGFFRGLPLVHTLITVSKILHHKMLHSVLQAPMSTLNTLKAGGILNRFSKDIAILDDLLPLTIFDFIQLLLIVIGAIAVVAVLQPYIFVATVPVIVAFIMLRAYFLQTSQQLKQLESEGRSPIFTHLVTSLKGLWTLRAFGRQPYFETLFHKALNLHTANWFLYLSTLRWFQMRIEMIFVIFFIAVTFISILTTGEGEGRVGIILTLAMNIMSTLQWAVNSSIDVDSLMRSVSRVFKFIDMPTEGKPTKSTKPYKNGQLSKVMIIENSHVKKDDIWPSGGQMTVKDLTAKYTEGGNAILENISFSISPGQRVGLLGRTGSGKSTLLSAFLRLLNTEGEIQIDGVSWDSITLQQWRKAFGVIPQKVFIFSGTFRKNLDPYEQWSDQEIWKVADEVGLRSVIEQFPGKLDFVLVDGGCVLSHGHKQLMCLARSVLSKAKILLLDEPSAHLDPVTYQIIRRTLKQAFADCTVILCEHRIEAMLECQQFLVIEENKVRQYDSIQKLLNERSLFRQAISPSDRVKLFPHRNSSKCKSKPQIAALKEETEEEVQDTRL

Row | Ent. A Max Activity (Table 6) | EC50 (Table 6) [nM] | Ent. A Max Activity (Table 7) | EC50 (Table 7) [nM] | Compound
1 | +++ (+++ is >60%) | < 1000 |  |  | Cc1cccc(C)c1-c1cc2nc(n1)NS(=O)(=O)c1cccc(c1)C(=O)N(CCOCc1ccccc1)[C@H](CC(C)C)CO2 [Compound 81, (11R)-12-[2-(Benzyloxy)ethyl]-6-(2,6-dimethylphenyl)-11-(2-methylpropyl)-9-oxa-2λ^6-thia-3,5,12,19-tetraazatricyclo[12.3.1.14,8]nonadeca-1(17),4,6,8(19),14(18),15-hexaene-2,2,13-trione]
2 | +++ (+++ is >60%) | < 1000 |  |  | Cc1cccc(C)c1-c1cc2nc(n1)NS(=O)(=O)c1cccc(c1)C(=O)N(Cc1ccnn1C)[C@H](CC(C)C)CO2 [Compound 345]
3 |  |  | +++ (+++ is >60%) | < 1000 | Cc1cccc(C)c1-c1cc2nc(n1)NS(=O)(=O)c1cccc(c1)C(=O)N(Cc1ccc(N3CCC(C)(C)CC3)nc1)[C@H](CC(C)C)CO2 [Compound 940]
4 | +++ (+++ is >60%) | < 1000 |  |  | Cc1cccc(C)c1-c1cc2nc(n1)NS(=O)(=O)c1cccc(c1)C(=O)N(CCN1CCOCC1)[C@H](CC(C)C)CO2 [Compound 1108]
5 |  |  | +++ (+++ is >60%) | < 1000 | Cc1cccc(C)c1-c1cc2nc(n1)NS(=O)(=O)c1cccc(c1)C(=O)N(Cc1ccc(N3CC[C@@H](C)C3)nc1)[C@H](CC(C)C)CO2 [Compound 958]
6 |  |  |  | < 1000 | Cc1cccc(C)c1-c1cc2nc(n1)NS(=O)(=O)c1cccc(c1)C(=O)N(Cc1ccc(C3=CCN(C)CC3)nc1)[C@H](CC(C)C)CO2 [Compound 967]
7 | +++ (+++ is >60%) | < 1000 |  |  | Cc1cccc(C)c1-c1cc2nc(n1)NS(=O)(=O)c1cccc(c1)C(=O)N(CCCn1cccn1)[C@H](CC(C)C)CO2 [Compound 354]
8 | +++ (+++ is >60%) | < 1000 |  |  | Cc1cccc(C)c1-c1cc2nc(n1)NS(=O)(=O)c1cccc(c1)C(=O)N(Cc1ccn[nH]1)[C@H](CC(C)C)CO2 [Compound 860]
9 | +++ (+++ is >60%) | < 1000 |  |  | COc1ncccc1CN1C(=O)c2cccc(c2)S(=O)(=O)Nc2nc(cc(-c3c(C)cccc3C)n2)OC[C@H]1CC(C)C [Compound 420]
10 | +++ (+++ is >60%) | < 1000 |  |  | COc1ccncc1CN1C(=O)c2cccc(c2)S(=O)(=O)Nc2nc(cc(-c3c(C)cccc3C)n2)OC[C@H]1CC(C)C [Compound 421]
11 | +++ (+++ is >60%) | < 1000 |  |  | Cc1cccc(C)c1-c1cc2nc(n1)NS(=O)(=O)c1cccc(c1)C(=O)N(CCC(C)(C)C)[C@H](CC(C)C)CO2 [Compound 429]
12 |  |  | +++ (+++ is >60%) | < 1000 | Cc1cccc(C)c1-c1cc2nc(n1)NS(=O)(=O)c1cccc(c1)C(=O)N(CC1CC3(CCN(C)CC3)C1)[C@H](CC(C)C)CO2 [Compound 89, (11R)-6-(2,6-Dimethylphenyl)-11-isobutyl-12-[(7-methyl-7-azaspiro[3.5]nonan-2-yl)methyl]-2,2-dioxo-9-oxa-2λ^6-thia-3,5,12,19-tetrazatricyclo[12.3.1.14,8]nonadeca-1(18),4(19),5,7,14,16-hexaen-13-one]
13 |  |  | ++ (++ is 30-60%) |  | CCCC(=O)N1Cc2cccc(c2)S(=O)(=O)Nc2nc(cc(-c3c(C)cccc3C)n2)OC[C@H]1CC(C)C [Compound 1052]
14 | +++ (+++ is >60%) | < 1000 |  |  | Cc1cccc(C)c1-c1cc2nc(n1)NS(=O)(=O)c1cccc(c1)C(=O)N(Cc1cccnc1)[C@H](CC(C)C)CO2 [Compound 364]
15 |  |  | +++ (+++ is >60%) | < 1000 | Cc1cccc(C)c1-c1cc2nc(n1)NS(=O)(=O)c1cccc(c1)C(=O)N(Cc1ccc(C(=O)N(C)C)nc1)[C@H](CC(C)C)CO2 [Compound 981]
16 |  |  | +++ (+++ is >60%) | < 1000 | Cc1cccc(C)c1-c1cc2nc(n1)NS(=O)(=O)c1cccc(c1)C(=O)N(Cc1ccc(NCCN(C)C)nc1)[C@H](CC(C)C)CO2 [Compound 944]
17 |  |  | + (+ is <30%) | < 1000 | Cc1cccc(C)c1-c1cc2nc(n1)NS(=O)(=O)c1cccc(c1)C(=O)N(CCC(C)(C)C)[C@H](CC1(C(F)(F)F)CC1)CO2 [Compound 686]
18 | +++ (+++ is >60%) | < 1000 |  |  | Cc1cccc(C)c1-c1cc2nc(n1)NS(=O)(=O)c1cccc(c1)C(=O)N(Cc1ccc(C(C)(C)C)cc1)[C@H](CC(C)C)CO2 [Compound 425]
19 | +++ (+++ is >60%) | < 1000 |  |  | CCC(CC)CN1C(=O)c2cccc(c2)S(=O)(=O)Nc2nc(cc(-c3c(C)cccc3C)n2)OC[C@H]1CC(C)C [Compound 990]

The remaining lines, values behind:

Row | Compound | Ent. A Max Activity (Table 6) | EC50 (Table 6) [nM] | Ent. A Max Activity (Table 7) | EC50 (Table 7) [nM]
20 | Cc1cccc(C)c1-c1cc2nc(n1)NS(=O)(=O)c1cccc(c1)C(=O)N(Cc1ccncc1)CCO2 [Compound 977] | +++ (+++ is >60%) | 3000 to 30000 |  | 
21 | Cc1cccc(C)c1-c1cc2nc(n1)NS(=O)(=O)c1cccc(c1)C(=O)N(Cc1ccc(N3CCC(F)(F)CC3)nc1)[C@H](CC(C)C)CO2 [Compound 937] |  |  | +++ (+++ is >60%) | < 1000
22 | COC1CCC(CC(=O)N2Cc3cccc(c3)S(=O)(=O)Nc3nc(cc(-c4c(C)cccc4C)n3)OC[C@H]2CC(C)C)CC1 (stereo partly drawn) [Compound 1047] |  |  | + (+ is <30%) | 
23 | Cc1cccc(C)c1-c1cc2nc(n1)NS(=O)(=O)c1cccc(c1)C(=O)N(Cc1ccc(N3CCC(C)(C#N)CC3)nc1)[C@H](CC(C)C)CO2 [Compound 938] |  |  | +++ (+++ is >60%) | < 1000
24 | COC1CCC(CC(=O)N2Cc3cccc(c3)S(=O)(=O)Nc3nc(cc(-c4c(C)cccc4C)n3)OC[C@H]2CC(C)C)CC1 (stereo partly drawn) [Compound 1045] |  |  | + (+ is <30%) | 
25 | CCOc1cc(CN2Cc3cccc(c3)S(=O)(=O)Nc3nc(cc(-c4c(C)cccc4C)n3)OC[C@H]2CC(C)C)ccc1OC [Compound 1038] |  |  | ++ (++ is 30-60%) | < 1000
26 | Cc1cccc(C)c1-c1cc2nc(n1)NS(=O)(=O)c1cccc(c1)CN(Cc1ccc3c(c1)OC(F)(F)O3)[C@H](CC(C)C)CO2 [Compound 1032] |  |  | ++ (++ is 30-60%) | < 1000
27 | Cc1cccc(C)c1-c1cc2nc(n1)NS(=O)(=O)c1cccc(c1)C(=O)N(Cc1ccccc1)CCO2 [Compound 978] | +++ (+++ is >60%) | < 1000 |  | 
28 | Cc1cccc(C)c1-c1cc2nc(n1)NS(=O)(=O)c1cccc(c1)C(=O)N(Cc1ccc(N3CCC(C#N)CC3)nc1)[C@H](CC(C)C)CO2 [Compound 972] |  |  | +++ (+++ is >60%) | < 1000
29 | Cc1cccc(C)c1-c1cc2nc(n1)NS(=O)(=O)c1cccc(c1)C(=O)N(C)CC(c1ccccc1)O2 (stereo not drawn) [Compound 677] | +++ (+++ is >60%) | < 1000 |  | 
30 | Cc1cccc(C)c1-c1cc2nc(n1)NS(=O)(=O)c1cccc(c1)CN(Cc1ccccc1OCc1ccccc1)[C@H](CC(C)C)CO2 [Compound 1037] |  |  | ++ (++ is 30-60%) | < 1000
31 | COc1ccc(CN2Cc3cccc(c3)S(=O)(=O)Nc3nc(cc(-c4c(C)cccc4C)n3)OC[C@H]2CC(C)C)cc1C(F)(F)F [Compound 1031] |  |  | ++ (++ is 30-60%) | < 1000
32 | Cc1cccc(C)c1-c1cc2nc(n1)NS(=O)(=O)c1cccc(c1)C(=O)N(C)C[C@H](c1ccccc1)O2 [Compound 673] | + (+ is <30%) | 3000 to 30000 |  | 
33 | Cc1cccc(C)c1-c1cc2nc(n1)NS(=O)(=O)c1cccc(c1)C(=O)N(C)C[C@H](c1cccc(C(C)(C)C)c1)O2 (single isomer, unassigned) [Compound 15, 10-(3-tert-butylphenyl)-6-(2,6-dimethylphenyl)-12-methyl-2,2-dioxo-9-oxa-2λ^6-thia-3,5,12,19-tetrazatricyclo[12.3.1.14,8]nonadeca-1(18),4(19),5,7,14,16-hexaen-13-one] |  |  | + (+ is <30%) | 3000 to 30000
34 | Cc1cccc(C)c1-c1cc2nc(n1)NS(=O)(=O)c1cccc(c1)C(=O)N(CCC1CCOCC1)[C@H](CC1(C(F)(F)F)CC1)CO2 [Compound 680] |  |  | + (+ is <30%) | < 1000
35 | Cc1cccc(C)c1-c1cc2nc(n1)NS(=O)(=O)c1cccc(c1)C(=O)N(Cc1ccc(N3CCC(C)(O)CC3)nc1)[C@H](CC(C)C)CO2 [Compound 939] |  |  | +++ (+++ is >60%) | < 1000
36 | Cc1cccc(C)c1-c1cc2nc(n1)NS(=O)(=O)c1cccc(c1)C(=O)N(Cc1ccc(N3CCC(N(C)C)CC3)nc1)[C@H](CC(C)C)CO2 [Compound 945] |  |  | +++ (+++ is >60%) | < 1000
37 | Cc1cccc(C)c1-c1cc2nc(n1)NS(=O)(=O)c1cccc(c1)C(=O)N(Cc1ccc(C3=CCN(C)CC3)cc1)[C@H](CC(C)C)CO2 [Compound 86, (11R)-6-(2,6-Dimethylphenyl)-11-isobutyl-12-[[4-(1-methyl-3,6-dihydro-2H-pyridin-4-yl)phenyl]methyl]-2,2-dioxo-9-oxa-2λ^6-thia-3,5,12,19-tetrazatricyclo[12.3.1.14,8]nonadeca-1(18),4(19),5,7,14,16-hexaen-13-one] | +++ (+++ is >60%) | < 1000 |  | 
38 | Cc1cccc(C)c1-c1cc2nc(n1)NS(=O)(=O)c1cccc(c1)C(=O)N(CCC1CCOCC1)[C@H](CC1(C(F)(F)F)CC1)CO2 [Compound 681] |  |  | +++ (+++ is >60%) | < 1000
39 | Cc1cccc(C)c1-c1cc2nc(n1)NS(=O)(=O)c1cccc(c1)C(=O)N(Cc1ccc(N3CCC[C@H](O)C3)nc1)[C@H](CC(C)C)CO2 [Compound 962] |  |  | +++ (+++ is >60%) | < 1000
40 | CNCCNCC1CN(C)C(=O)c2cccc(c2)S(=O)(=O)Nc2nc(cc(-c3c(C)cccc3C)n2)O1 (stereo not drawn) [Compound 1016] | + (+ is <30%) |  |  | 
